In patent publication US12312332B2 (Merck Sharp & Dohme LLC., priority 2019, dated 2025):

Target: T1, human OX2R (Homo sapiens, UniProt O43614)
T1 construct: expressed in transfected cells; host or cells: Chinese hamster ovary (CHO) cells, kept under G418 selection
T1 sequence (O43614 1-444): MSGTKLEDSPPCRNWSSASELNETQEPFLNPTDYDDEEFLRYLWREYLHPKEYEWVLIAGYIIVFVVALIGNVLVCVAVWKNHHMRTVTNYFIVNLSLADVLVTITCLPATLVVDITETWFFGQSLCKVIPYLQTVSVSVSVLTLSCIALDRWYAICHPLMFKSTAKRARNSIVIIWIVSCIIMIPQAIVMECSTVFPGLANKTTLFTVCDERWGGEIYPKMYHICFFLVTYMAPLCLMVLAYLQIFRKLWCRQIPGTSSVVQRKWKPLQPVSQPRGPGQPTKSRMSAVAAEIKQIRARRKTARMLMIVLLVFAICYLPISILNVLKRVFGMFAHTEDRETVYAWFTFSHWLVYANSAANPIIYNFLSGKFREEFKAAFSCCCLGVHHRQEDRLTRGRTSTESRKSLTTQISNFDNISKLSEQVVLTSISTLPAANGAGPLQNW
Experiment: IPOne (IP-One) orexin receptor agonist assay in CHO cells expressing human OX2R
Type: cell-based
Settings: for EC50: CHO cells expressing human OX2R, IP-One detection, 2 hours incubation, four parameter logistic fit, read-out: OX2R Potency, EC50; for % max agonist effect (Emax): human OX2R, percentage of sample raw value/mean max effect (reference compound at 1 uM with 100% activity)

C[C@@H]1C[C@H](NS(=O)(=O)N(C)C)[C@H](CO[C@H]2CC[C@@H](c3cccc(F)c3)CC2)N1c1cc(O)ccn1 [Example 157, N′-((2R,3S,5R)-2-((((CIS)-4-(3-fluorophenyl)cyclohexyl)oxy)methyl)-1-(4-hydroxypyridin-2-yl)-5-methylpyrrolidin-3-yl)-N,N-dimethyl-sulfamide]
EC50: 0.25 nM
% max agonist effect (Emax): 100.2%

CS(=O)(=O)N[C@H]1CCCN(c2nccc(O)c2F)[C@H]1CO[C@H]1CC[C@@H](c2ccccc2)CC1 [Example 158, N-((2R,3S)-1-(3-fluoro-4-hydroxypyridin-2-yl)-2-((((CIS)-4-phenylcyclohexyl)oxy)methyl)piperidin-3-yl)methanesulfonamide]
EC50: 32.5 nM
% max agonist effect (Emax): 99.7%

CS(=O)(=O)NC1CCCN(c2cccnc2)C1CO[C@H]1CC[C@@H](c2ccccc2)CC1 (stereo partly drawn) [Example 159, N-(2-((((CIS)-4-phenylcyclohexyl)oxy)methyl)-1-(pyridin-3-yl)piperidin-3-yl)methanesulfamide]
EC50: 10.1 nM
% max agonist effect (Emax): 100.9%

CS(=O)(=O)N[C@H]1CCN(c2nccc(O)c2F)[C@H]1COC1CCC(c2ccccc2C(F)(F)F)CC1 (stereo partly drawn) [Example 160, N-((2R,3S)-1-(3-fluoro-4-hydroxypyridin-2-yl)-2-(((4-(2-(trifluoromethyl)phenyl)cyclohexyl)-oxy)methyl)pyrrolidin-3-yl)methanesulfonamide]
EC50: 6.1 nM
% max agonist effect (Emax): 101.7%

CS(=O)(=O)N[C@H]1CCN(c2nccc(O)c2F)[C@H]1CO[C@H]1CC[C@@H](c2c(F)ccc(F)c2F)CC1 [Example 161, N-((2R,3S)-1-(3-fluoro-4-hydroxypyridin-2-yl)-2-((((CIS)-4-(2,3,6-trifluorophenyl)cyclohexyl)oxy)methyl)pyrrolidin-3-yl)methanesulfonamide]
EC50: 2 nM
% max agonist effect (Emax): 100.3%

CC(C)[C@H]1CC[C@@H](OC[C@H]2[C@@H](NS(C)(=O)=O)CCN2c2nccc(O)c2F)CC1 [Example 162, N-((2R,3S)-1-(3-fluoro-4-hydroxypyridin-2-yl)-2-((((CIS)-4-isopropylcyclohexyl)oxy)methyl)pyrrolidin-3-yl) methanesulfonamide]
EC50: 24.3 nM
% max agonist effect (Emax): 98.5%

CS(=O)(=O)N[C@H]1CCN(c2ncc(F)c(O)c2F)[C@H]1CO[C@H]1CC[C@@H](c2cccc(F)c2)CC1 [Example 163, N-((2R,3S)-1-(3,5-difluoro-4-hydroxypyridin-2-yl)-2-((((CIS)-4-(3-fluorophenyl)cyclohexyl)oxy)methyl)pyrrolidin-3-yl)methanesulfonamide]
EC50: 1.4 nM
% max agonist effect (Emax): 101.8%

C[C@@H]1C[C@H](NS(C)(=O)=O)[C@H](CO[C@H]2CC[C@@H](c3cccc(F)c3)CC2)N1c1[nH]ccc(=O)c1F [Example 164, N-((2R,3S,5R)-1-(3-fluoro-4-oxo-1,4-dihydropyridin-2-yl)-2-((((CIS)-4-(3-fluorophenyl)cyclohexyl)oxy)methyl)-5-methylpyrrolidin-3-yl)methanesulfonamide]
EC50: 0.72 nM
% max agonist effect (Emax): 98.6%
